Reference: US10059674B2, “Design, synthesis, and biological evaluation of 1-methyl-1, 4-dihyrdoindeno[1,2-C]pyrazole analogues as potential anticaner agents targeting tubulin colchicine binding site” (ACT PHARMA CO., LTD., priority 2016, dated 2018)
Read-outs that look alike come from different tables or passages of the source. Blank lines part the entries; values can stand above or below the compound they belong to.

Legend:
MDCK cells [1] = tested on: MDCK cells
[2] = MDCK cell permeability test; conditions: dog, MDCK, 90 min; for Papp A→B at 90 min: Apparent permeability coefficient A→B; for Papp B→A at 90 min: Apparent permeability coefficient B→A
in vitro [3] = conditions: mouse, liver microsomes, pH 7.47
in vitro [4] = conditions: rat, microsomes, pH 7.47
[5] = tested on: human breast adenocarcinoma (MCF-7) cells; experiment: Anti-proliferation test (MTT colorimetry); type: cell-based; conditions: MCF7, MCF-7, 72 h
Procedure: (§1) The compound of formula 1 (prepared in embodiment 1), and the compound of formula 2 (prepared in embodiment 2) are given at different concentrations to human hepatocellular carcinoma (HepG2) cells, human prostate carcinoma (PC3) cells, human cervical carcinoma (HeLa) cells, human breast adenocarcinoma (MCF-7) cells, and human leukemia (K562) cells; all the groups are incubated 72 h in an incubator containing 5% of CO2 at 37° C., and then inhabitation ratios of the compounds to the tumor cells are measured by using methyl thiazolyl tetrazolium (MTT) colorimetry, and results are shown in table 1.

[6] = tested on: human leukemia (K562) cells; experiment: Anti-proliferation test (MTT colorimetry); type: cell-based; conditions: K562, 72 h
Procedure: as §1

[7] = tested on: human cervical carcinoma (HeLa) cells; experiment: Anti-proliferation test (MTT colorimetry); type: cell-based; conditions: 72 h
Procedure: as §1

[8] = tested on: human prostate carcinoma (PC3) cells; experiment: Anti-proliferation test (MTT colorimetry); type: cell-based; conditions: PC-3, PC3, 72 h
Procedure: as §1

[9] = tested on: human hepatocellular carcinoma (HepG2) cells; experiment: Anti-proliferation test (MTT colorimetry); type: cell-based; conditions: HepG2, 72 h
Procedure: as §1

in vitro [10] = conditions: monkey, microsomes, pH 7.47
[11] = Liver microsomal metabolism stability test; conditions: mouse
in vitro [12] = conditions: dog, microsomes, pH 7.47
MDCK cells [13] = experiment: MDCK cell permeability test
P-gp = experiment: MDCK cell permeability test; conditions: dog, MDCK
in vitro [14] = conditions: human, microsomes, pH 7.47
tubulin = experiment: Tubulin polymerization experiment (Cytoskeleton Tubulin Polymerization Assay Kit); type: biochemical
Procedure: The tubulin polymerization experiment is carried out according to the specifications of Tubulin Polymerization Assay Kit of Cytoskeleton Corporation.

[15] = Liver microsomal metabolism stability test; conditions: rat, microsomes, pH 7.47
[16] = Recovery rate A→B, 2nd line of the compound (condition not given)
[17] = Recovery rate A→B, 1st line of the compound (condition not given; method: without / with 10 μM cyclosporine A)
[18] = Recovery rate B→A, 1st line of the compound (condition not given)
[19] = Recovery rate B→A, 2nd line of the compound (condition not given)
[20] = 1st line of the compound (condition not given)
[21] = 2nd line of the compound (condition not given)

PGP substrate judgment (MDCK cells [1]): Yes
recovery at 90 min [2, 16]: 95.4%
recovery at 90 min [2, 17]: 106%
recovery at 90 min [2, 18]: 102%
recovery at 90 min [2, 19]: 100%
SMILES: CC(C)CN(C[C@@H](O)[C@H](Cc1ccccc1)NC(=O)O[C@H]1CCOC1)S(=O)(=O)c1ccc(N)cc1 [Amprenavir, amprenavir, reference compound]

half-life at 1 µM (in vitro [3]): 17.8 min
microsomal CLint at 1 µM (in vitro [3]): 78 µL/min/mg
half-life at 1 µM (in vitro [4]): 24 min
microsomal CLint at 1 µM (in vitro [4]): 57.7 µL/min/mg
IC50 [5]: 3.36 nM
IC50 [6]: 8.33 nM
IC50 [7]: 13.2 nM
IC50 [8]: 23.5 nM
IC50 [9]: 16.4 nM
half-life at 1 µM (in vitro [10]): 1.3 min
microsomal CLint at 1 µM (in vitro [10]): 1070 µL/min/mg
metabolism in the liver microsomes (in words) [11]: faster
half-life at 1 µM (in vitro [12]): 7.5 min
microsomal CLint at 1 µM (in vitro [12]): 185 µL/min/mg
Papp A→B at 90 min [2, 20]: 7.4 ×10⁻⁶ cm/s
Papp A→B at 90 min [2, 21]: 12.4 ×10⁻⁶ cm/s
Papp B→A at 90 min [2, 20]: 32.6 ×10⁻⁶ cm/s
Papp B→A at 90 min [2, 21]: 6.9 ×10⁻⁶ cm/s
recovery at 90 min [2, 16]: 59.2%
recovery at 90 min [2, 17]: 89.4%
recovery at 90 min [2, 18]: 91.3%
recovery at 90 min [2, 19]: 79.4%
PGP substrate judgment (MDCK cells [13]; MDCK cells): is the PGP substrate and Yes
Permeability Judgment (MDCK cells [13]; MDCK cells): moderate permeability
Efllux ratio (MDCK cells [13]; Papp(B→A)/Papp(A→B), 2nd line of the compound (condition not given)): 0.6
efflux ratio at 90 min (P-gp): 4.4
half-life at 1 µM (in vitro [14]): 12.9 min
microsomal CLint at 1 µM (in vitro [14]): 108 µL/min/mg
IC50 (tubulin; read-out: tubulin polymerization inhibiting IC50): 5330 nM
SMILES: CCOc1cccc(Nc2nn(C)c3c2Cc2cc(OCC)c(OCC(=O)NO)cc2-3)c1 [LL-02]
inhibition of tubulin polymerization (in words) (tubulin; FIGS. 1 and 2): able to inhibit tubulin polymerization

SMILES: COc1ccc2[nH]c([S+]([O-])Cc3ncc(C)c(OC)c3C)nc2c1 (stereo not shown) [omeprazole, reference compound]
microsomal CLint at 1 µM (in vitro [4]): 88.3 µL/min/mg
half-life at 1 µM [15]: 15.7 min
